Laboratory results reported in patent US8623914B2, “Medical composition” (TSUMURA & Co., priority 2011, dated 2014).

Columns and labels:
Set-up in all cases: species or system rat
[1] = test system: large intestinal peristaltic motility; test: Test 1: action of each Daikenchuto component on peristaltic motility of the isolated intestine in an organ bath; details: for AUC (area under curve peak) / Mean-PPA (mean of peak pressure amplitude) / PF (peak frequency): value before addition = 100%
Method: Investigation of the Action of Each Crude Drug Component Contained in Daikenchuto on the Large Intestinal Peristaltic Motility:
Rats were used as experimental animals. According to the following way, the components contained in Daikenchuto, i.e., HAS, 6-shogaol (hereinafter abbreviated as “6-S”) and 6-gingerol (hereinafter abbreviated as “6-G”), were tested for the action on the peristaltic motility.
Male SD rats (provided by Japan Charles River Co.; SPF animals) were obtained at 6 weeks of age (body weight: 190-220 g) and the test was started at 7-9 weeks of age (body weight: 220-280 g at acquisition and using). Breeding was conducted at a temperature of 20-26° C. and a humidity of 35-75%, in aeration frequency of 15-25/hour in a cage under lighting for 12 hours (7 o'clock to 19 o'clock) per day, wherein 4 rats were placed in a cage. For feeding, solid feed MF (Oriental Yeast Co., Ltd.) was used, and the rats were able to freely drink ordinary tap water (Amimachi, Ibaraki Pref).
(§1) Normal rats which fasted overnight with free access to water were decapitated for mercy killing. Immediately, the intestine was removed and cut into 3-4 cm pieces, which were used as test samples. The removed test samples were immersed in an organ bath (perfusion rate: 3.5 mL/min) filled with a Krebs solution warmed at 32-33° C. and saturated with 95% O2/5% CO2 gas mixture. […] From the mouth side, physiological saline was injected at a certain rate (0.15 mL/min), and the frequency and amplitude of the pressure change in the lumen caused by the intestinal peristaltic motility were measured by means of a microchip pressure transducer (SPR-524, Millar Instruments Co.). After confirmation of the stabilized peristaltic motility in the test samples (intestinal tract), a test drug was added to the organ bath. Before and after the addition, the change of peristaltic motility for 10 minutes was determined by using recorded wave profile for the mean peak pressure amplitude (mean-PPA), the area under curve (AUC) of the peak and the peak frequency (PF) in the transducer. The resulting recorded wave profile was converted into numerical terms as the amplitude or frequency of the peristaltic motility by an analysis software. The value before the addition of the test drug was regarded as 100% for comparison and evaluation.

[2] = test system: intestinal peristaltic motility; test: Test 2: peristaltic motility, combinations of HAS with 6-S or 6-G, same manner as Test 1; details: for AUC (area under curve peak) / Mean-PPA (mean of peak pressure amplitude) / PF (peak frequency): value before addition = 100%; for enhancement of the prokinetic effect on peristaltic motility by combining with HAS (in words): combined with HAS at a dose too low to exert the effect when used alone
Method: as §1
On the basis of the prokinetic effect of HAS, 6-S and 6-G on peristaltic motility in Test 1, the change of the prokinetic effect in a combination of these compounds was investigated in the same manner as in Test 1.

[3] = test system: intestinal peristaltic motility; test: Test 4: peristaltic motility, HAS and bethanechol chloride alone and combined, same manner as Test 1; details: for AUC (area under curve peak) / Mean-PPA (mean of peak pressure amplitude) / PF (peak frequency): value before addition = 100%
Method: as §1, with “After confirmation of the stabilized peristaltic motility in the test samples (intestinal tract), a test drug was added to the organ bath. Before and after the addition, the change of peristaltic motility for 10 minutes was determined by using recorded wave profile for the mean peak pressure amplitude (mean-PPA), the area under curve (AUC) of the peak and the peak frequency (PF) in the transducer.” left out

[4] = test system: intestinal peristaltic motility; test: Test 3: peristaltic motility, HAS and CAP alone and combined, same manner as Test 1; details: for AUC (area under curve peak) / Mean-PPA (mean of peak pressure amplitude) / PF (peak frequency): value before addition = 100%
Method: as §1
The respective prokinetic effect of HAS and CAP on peristaltic motility and change of the effect in a combination of these compounds were investigated in the same manner as in Test 1.

[5] = HAS 3 μM + CAP 0.03 μM versus CAP alone

In the case of `CCCCC[C@H](O)CC(=O)CCc1ccc(O)c(OC)c1` [6-G, 6-gingerol], the “prokinetic effect on peristaltic motility (in words)” value ([1]; 1 μM) is reported as “weak prokinetic effect”, the “AUC (area under curve peak)” value ([1]; 1 μM) is reported as 120.5% and the “Mean-PPA (mean of peak pressure amplitude)” value (“Mean-PPA” below) ([1]; 1 μM) is reported as 141.1%. The “PF (peak frequency)” value ([1]; 1 μM) was 115.0%, the “prokinetic effect on peristaltic motility (in words)” value ([1]; 10 μM) was “significant prokinetic effect” and the “AUC (area under curve peak)” value ([1]; 10 μM) was 188.2%. For the same molecule, the “Mean-PPA” value ([1]; 10 μM) was 304.2%, the “PF (peak frequency)” value ([1]; 10 μM) was 76.9% and the “AUC (area under curve peak)” value ([2]; 3 μM) was 174.9%. For the same molecule, the “Mean-PPA” value ([2]; 3 μM) was 235.8%, the “PF (peak frequency)” value ([2]; 3 μM) was 102.9% and the “enhancement of the prokinetic effect on peristaltic motility by combining with HAS (in words)” value [2] was “potent enhancement”.
With `CCCCC/C=C/C(=O)CCc1ccc(O)c(OC)c1` [6-S, 6-shogaol] the “prokinetic effect on peristaltic motility (in words)” value ([1]; 1 μM) was “promoted weakly”, the “AUC (area under curve peak)” value ([1]; 1 μM) was 133.3% and the “Mean-PPA” value ([1]; 1 μM) was 202.6%. The “PF (peak frequency)” value ([1]; 1 μM) was 102.6%, the “prokinetic effect on peristaltic motility (in words)” value ([1]; 10 μM) was “prokinetic effect disappeared” and the “AUC (area under curve peak)” value ([1]; 10 μM) was 73.4%. For the same molecule, the “Mean-PPA” value ([1]; 10 μM) was 94.6%, the “PF (peak frequency)” value ([1]; 10 μM) was 120.8% and the “AUC (area under curve peak)” value ([2]; 1 μM) was 133.3%. For the same molecule, the “Mean-PPA” value ([2]; 1 μM) was 202.6%, the “PF (peak frequency)” value ([2]; 1 μM) was 115.0% and the “enhancement of the prokinetic effect on peristaltic motility by combining with HAS (in words)” value [2] was “potent enhancement”.
In the case of `CC(C[N+](C)(C)C)OC(N)=O` (centres unmarked) [Beth, bethanechol chloride], the “AUC (area under curve peak)” value ([3]; 1 μM) is reported as 87.6%, the “Mean-PPA” value ([3]; 1 μM) is reported as 98.9% and the “PF (peak frequency)” value ([3]; 1 μM) is reported as 153.8%.
In the case of `COc1cc(CNC(=O)CCCC/C=C/C(C)C)ccc1O` [CAP, capsaicin], the “AUC (area under curve peak)” value ([4]; 0.03 μM) is reported as 147.1%, the “Mean-PPA” value ([4]; 0.03 μM) is reported as 143.7% and the “PF (peak frequency)” value ([4]; 0.03 μM) is reported as 108.1%.
`C/C=C/C=C/C=C\CC/C=C/C(=O)NCC(C)(C)O` [HAS, Hydroxy-α-sanshool] was tested, and the “prokinetic effect on peristaltic motility (in words)” value ([1]; 3 μM) was “no influence”, the “AUC (area under curve peak)” value ([1]; 3 μM) was 121.5% and the “Mean-PPA” value ([1]; 3 μM) was 119.5%. The “PF (peak frequency)” value ([1]; 3 μM) was 98.3%, the “prokinetic effect on peristaltic motility (in words)” value ([1]; 10 μM) was “very strong prokinetic effect” and the “AUC (area under curve peak)” value ([1]; 10 μM) was 227.9%. For the same molecule, the “Mean-PPA” value ([1]; 10 μM) was 478.2%, the “PF (peak frequency)” value ([1]; 10 μM) was 52.5% and the “AUC (area under curve peak)” value ([2]; 3 μM) was 99.0%. For the same molecule, the “Mean-PPA” value ([2]; 3 μM) was 101.2%, the “PF (peak frequency)” value ([2]; 3 μM) was 93.0% and the “AUC (area under curve peak)” value ([4]; 3 μM) was 110.2%. The “Mean-PPA” value ([4]; 3 μM) was 105.7%, the “PF (peak frequency)” value ([4]; 3 μM) was 98.7% and the “enhancement by HAS of the increase in AUC induced by CAP” value [4, 5] was roughly 4.6 times. For the same molecule, the “enhancement by HAS of the increase in PPA induced by CAP” value [4, 5] was “about 9.8 times”, the “AUC (area under curve peak)” value ([3]; 3 μM) was 130.6% and the “Mean-PPA” value ([3]; 3 μM) was 105.2%. The “PF (peak frequency)” value ([3]; 3 μM) was 84.6% and the “enhancement by HAS of the increase in PF induced by Beth” value ([3]; HAS 3 μM + Beth 1 μM versus Beth alone) was “twice or more”.
